Values quoted from earlier work, collected in patent US11910793B2, “Multifunctional agricultural adjuvant compositions” (WINFIELD SOLUTIONS, LLC, priority 2019, dated 2024).

Conditions: water at 0° C.

N.N.O=S(=O)(O)O [AMS, ammonium sulfate]
amount of AMS dissolvable in water: 41 wt. %
